Source: patent US11492335B2, “Aryl or heteroaryl triazolone derivatives or salts thereof, or pharmaceutical compositions comprising the same” (YUHAN CORPORATION, priority 2018, dated 2022)
Structures can show the parent of a compound that is named as a salt. Where two headings read alike, the source gives them in different places.

Tests used:
Assay type in all cases: biochemical
[1] = molecular target: T1, recombinant human DAO (diamine oxidase) (Homo sapiens, UniProt P19801); experiment: Activity on recombinant human DAO, Amplex Red method, 1 mM putrescine substrate; conditions: recombinant human DAO, read-out: Inhibitory Activity (IC50, nM) DAO
T1 construct: purchased R&D systems
T1 sequence (P19801 20-751): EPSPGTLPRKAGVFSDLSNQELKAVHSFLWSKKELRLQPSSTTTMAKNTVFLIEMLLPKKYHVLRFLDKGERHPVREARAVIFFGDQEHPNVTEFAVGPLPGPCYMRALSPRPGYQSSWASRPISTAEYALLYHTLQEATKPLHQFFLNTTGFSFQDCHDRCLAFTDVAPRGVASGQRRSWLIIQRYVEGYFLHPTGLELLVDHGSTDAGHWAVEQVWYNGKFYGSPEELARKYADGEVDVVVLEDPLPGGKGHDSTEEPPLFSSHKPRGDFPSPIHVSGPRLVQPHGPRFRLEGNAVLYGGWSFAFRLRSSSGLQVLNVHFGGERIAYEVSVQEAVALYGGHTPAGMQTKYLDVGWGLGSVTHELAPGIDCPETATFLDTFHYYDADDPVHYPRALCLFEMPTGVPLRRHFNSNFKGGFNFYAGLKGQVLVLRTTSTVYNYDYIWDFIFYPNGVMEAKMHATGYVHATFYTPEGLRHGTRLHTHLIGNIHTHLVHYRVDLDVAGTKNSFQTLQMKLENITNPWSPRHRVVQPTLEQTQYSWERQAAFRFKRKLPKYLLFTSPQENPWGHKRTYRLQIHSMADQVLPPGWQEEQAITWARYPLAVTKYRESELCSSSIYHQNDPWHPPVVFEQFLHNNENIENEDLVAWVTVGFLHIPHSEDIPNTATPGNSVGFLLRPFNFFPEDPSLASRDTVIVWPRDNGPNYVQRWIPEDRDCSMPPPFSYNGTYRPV
Procedure, shortened: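 Inhibition of recombinant human DAO (diamine oxidase, R&D systems) was assessed with the Amplex Red Hydrogen Peroxide Assay Kit. Hydrogen peroxide produced from 1 mM putrescine was detected through an HRP-coupled reaction that converts Amplex Red into fluorescent resorufin, read at 544 nm excitation and 590 nm emission. IC50 values came from four-parameter logistic fits in GraphPad Prism.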

[2] = molecular target: T2, recombinant human MAO-A (monoamine oxidase-A) (Homo sapiens, UniProt P21397); experiment: Activity on recombinant human MAO-A, Amplex Red method, 0.5 mM tyramine substrate; conditions: read-out: Inhibitory Activity (IC50, nM) MAO-A
T2 construct: purchased Sigma-Aldrich
T2 sequence (P21397 1-527): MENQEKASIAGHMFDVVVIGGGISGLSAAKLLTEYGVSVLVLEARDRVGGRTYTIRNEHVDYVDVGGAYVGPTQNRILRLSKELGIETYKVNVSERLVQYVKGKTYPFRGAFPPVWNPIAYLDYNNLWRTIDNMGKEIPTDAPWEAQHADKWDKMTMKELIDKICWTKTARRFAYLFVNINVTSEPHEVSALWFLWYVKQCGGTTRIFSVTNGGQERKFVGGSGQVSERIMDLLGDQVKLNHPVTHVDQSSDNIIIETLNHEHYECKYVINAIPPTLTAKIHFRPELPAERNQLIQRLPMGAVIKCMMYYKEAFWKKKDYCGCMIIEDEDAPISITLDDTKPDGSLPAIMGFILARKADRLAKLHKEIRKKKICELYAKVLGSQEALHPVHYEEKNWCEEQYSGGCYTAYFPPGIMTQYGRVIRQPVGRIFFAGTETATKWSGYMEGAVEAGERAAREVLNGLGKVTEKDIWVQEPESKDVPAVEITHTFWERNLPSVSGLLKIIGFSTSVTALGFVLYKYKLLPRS
Procedure, shortened: (§1)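 8-point, 1:3 dose-response, four-parameter logistic IC50 from reduction in fluorescence rate versus DMSO control. HRP/Amplex Red detection of H2O2 (ex 544, em 590 nm) after 30 min, 37 °C compound–enzyme preincubation in pH 7.4 phosphate buffer. MAO-A substrate: 0.5 mM tyramine; MAO-B: 1 mM benzylamine.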

[3] = molecular target: T3, recombinant human VAP-1 (Homo sapiens, UniProt Q16853); experiment: Activity on recombinant human VAP-1, Amplex Red HRP-coupled hydrogen peroxide assay, benzylamine substrate; conditions: recombinant human VAP-1, benzylamine substrate, read-out: Inhibitory Activity (IC50, nM) human VAP-1
T3 construct: purchased R&D systems
T3 sequence (Q16853 1-763): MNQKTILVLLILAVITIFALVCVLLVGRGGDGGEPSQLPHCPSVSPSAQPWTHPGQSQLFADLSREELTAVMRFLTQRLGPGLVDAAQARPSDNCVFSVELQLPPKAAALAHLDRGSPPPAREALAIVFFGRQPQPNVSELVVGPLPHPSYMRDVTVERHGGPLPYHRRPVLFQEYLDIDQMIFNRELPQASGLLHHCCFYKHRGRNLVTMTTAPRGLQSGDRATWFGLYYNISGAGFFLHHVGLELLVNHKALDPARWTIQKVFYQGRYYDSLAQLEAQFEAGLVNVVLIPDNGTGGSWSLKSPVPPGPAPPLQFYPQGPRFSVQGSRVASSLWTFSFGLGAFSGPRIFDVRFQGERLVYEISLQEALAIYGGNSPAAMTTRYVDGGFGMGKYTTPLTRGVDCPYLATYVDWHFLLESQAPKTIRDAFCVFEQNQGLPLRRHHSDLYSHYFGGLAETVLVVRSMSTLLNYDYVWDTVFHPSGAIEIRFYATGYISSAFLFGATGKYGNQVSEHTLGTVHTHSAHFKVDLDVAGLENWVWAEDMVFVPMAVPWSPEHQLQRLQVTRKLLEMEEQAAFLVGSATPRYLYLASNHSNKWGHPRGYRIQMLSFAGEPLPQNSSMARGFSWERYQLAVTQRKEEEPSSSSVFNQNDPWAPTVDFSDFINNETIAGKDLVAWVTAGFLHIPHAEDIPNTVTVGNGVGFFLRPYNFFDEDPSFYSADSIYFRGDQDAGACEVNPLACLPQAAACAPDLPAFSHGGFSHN
Procedure, shortened: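 Compounds were preincubated with purified enzyme in 50 mM sodium phosphate pH 7.4 at 37 °C for 30 min, then 200 uM Amplex Red, 1 mM benzylamine and 1 U/mL HRP were added. Resorufin fluorescence (ex 544/em 590 nm) was followed over 1-2 h; IC50 came from 4-parameter fits of signal-rate inhibition.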

[4] = molecular target: T4, recombinant human MAO-B (monoamine oxidase-B) (Homo sapiens, UniProt P27338); experiment: Activity on recombinant human MAO-B, Amplex Red method, 1 mM benzylamine substrate; conditions: read-out: Inhibitory Activity (IC50, nM) MAO-B
T4 construct: purchased Sigma-Aldrich
T4 sequence (P27338 1-520): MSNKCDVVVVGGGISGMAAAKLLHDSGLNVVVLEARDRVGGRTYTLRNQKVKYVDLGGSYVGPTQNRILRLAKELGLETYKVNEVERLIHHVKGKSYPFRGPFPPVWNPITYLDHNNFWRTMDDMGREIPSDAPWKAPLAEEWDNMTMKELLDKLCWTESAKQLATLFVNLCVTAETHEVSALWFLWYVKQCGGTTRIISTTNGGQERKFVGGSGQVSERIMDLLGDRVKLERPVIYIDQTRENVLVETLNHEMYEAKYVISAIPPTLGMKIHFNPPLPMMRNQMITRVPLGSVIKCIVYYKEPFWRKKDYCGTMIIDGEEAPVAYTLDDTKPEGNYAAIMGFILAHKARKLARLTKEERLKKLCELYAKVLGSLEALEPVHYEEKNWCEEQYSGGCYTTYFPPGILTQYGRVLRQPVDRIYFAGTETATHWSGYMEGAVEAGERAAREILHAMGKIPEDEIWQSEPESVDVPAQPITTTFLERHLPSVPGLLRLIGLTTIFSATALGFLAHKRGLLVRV
Procedure, shortened: as §1

IC50 ([1]; 1 mM putrescine substrate) [nM] | IC50 ([2]; 0.5 mM tyramine substrate) [nM] | IC50 [3] [nM] | IC50 ([4]; 1 mM benzylamine substrate) [nM] | IC50 ([1]; 1 mM putrescine, * = between 10 and 100 nM, ** = between 300 and 1000 nM) [nM] | IC50 ([2]; 0.5 mM tyramine) [nM] | IC50 ([3]; 30 min preincubation at 37° C.) [nM] | IC50 ([4]; 1 mM benzylamine) [nM] | Compound
< 10 | > 100000 | 1 | 240 | – | – | – | – | CC(C)c1nc(-c2ccc(-c3cc(-n4cnn(C/C(=C/F)CN)c4=O)ccn3)cc2)no1 [Example 205, 2-[(2E)-2-(aminomethyl)-3-fluoroprop-2-en-1-yl]-4-(2-{4-[5-(propan-2-yl)-1,2,4-oxadiazol-3-yl]phenyl}pyridin-4-yl)-2,4-dihydro-3H-1,2,4-triazol-3-one hydrochloride]
< 100 | > 100000 | 0.43 | 2580 | – | – | – | – | CC(=O)Nc1nc(Cc2ccc(-n3cnn(C/C(=C/F)CN)c3=O)cc2)cs1 [Example 235, hydrochloride]
– | – | – | – | < 30 | 22500 | 0.68 | > 10000 | NC/C(=C\F)Cn1ncn(-c2cccc(-c3ccc4cn[nH]c4c3)c2)c1=O [Example 97, 2-[(2E)-2-(aminomethyl)-3-fluoroprop-2-en-1-yl]-4-[3-(1H-indazol-6-yl)phenyl]-2,4-dihydro-3H-1,2,4-triazol-3-one hydrochloride]
